Laboratory results published in US20220072101A1, “HARNESSING INFLAMMATION TO TREAT NEURODEVELOPMENTAL DISORDERS” (President and Fellows of Harvard College, priority 2019, published 2022).
“Also recorded” adds a separate entry of the source.

Experiments:
Format in all cases: in vivo, mouse
[1] = system: Cntnap2, Fmr1, and Shank3 mutant mice; test: Three-chamber social approach assay in monogenic mutant mice; settings: Cntnap2, Fmr1 and Shank3 mutant mice; LPS i.p.; 4 hours
Description: All experiments were performed according to Guide for the Care and Use of Laboratory Animals and were approved by the National Institutes of Health and the Committee on Animal Care at Massachusetts Institute of Technology. C57BL/6 were purchased from Taconic Biosciences for generating PBS and MIA offspring. Vgat-Cre (028862) were purchased from Jackson Laboratories and inbred. For monogenic experiments, C57BL/6, Cntnap2 (017482), Fmr1 (003025), and Shank3 (017688) mice were purchased from Jackson Laboratories and inbred after colonizing with SFB from donor mice. IL-17Ra^fl/fl and IL-17RaKO were previously described^24,25. All mice were males aged 2-5 months, unless otherwise specified.
Adult male mice were assayed for sociability using a three-chamber social approach assay. The arena was constructed of white acrylic (50 cm×35 cm×30 cm). Wire cups (Spectrum Diversified®) were placed in the back left and right corner of the arena beneath water-filled 1 L bottles (Nalgene®). On day 0, mice were habituated to the arena for 10 min. Immediately following habituation, mice were singly housed. On day 1 (Pre), mice were placed in the center of the arena and allowed to freely explore. Following 10 min, mice were confined to the center of the arena. An inanimate object (rubber stopper) or a male conspecific were placed beneath the wire cups. Placement of the inanimate object and social target were alternated. Mice were then allowed to freely explore the arena for 10 min. Interaction time was defined as time spent in the areas circumscribing the wire cups (<2 cm). Sociability was defined as interaction time with the social target divided by total interaction time and expressed as a percentage. For experiments involving LPS injections, mice were injected with either saline (Veh) or LPS ([…], i.p., L2630, Sigma) on day 2 (Test), four hours prior to testing. For the experiment assaying sociability 72 hrs following LPS injection, mice used for 4 hr LPS sociability experiments were tested for sociability again at 72 hrs. […]

BBB = BBB permeability (Evans blue)
Description: BBB permeability was assessed with Evans blue (Sigma Aldrich®). The Evans blue dye binds to serum albumin (69,000 Da) to become a high-molecular-weight protein tracer. Mice were injected with 100 μl of Evans blue solution (10 mg/kg in PBS) intravenously. After 30 min, all injected mice were sacrificed. Whole brains were then removed and photographed. The brain tissues were disrupted in lysis buffer at full speed for 60 seconds using a Micro-Homogenizer (VWR International®). The fluorescence was determined using a Spectrophotometer (BioTek Instruments®) with excitation at 620 nm and emission at 680 nm.

c-Fos = test: Quantification of c-Fos+ cells in the brain after LPS administration
Description: Animals were transcardially perfused with cold PFA (4% in PBS). Brains were kept in PFA overnight at 4° C. prior to vibratome sectioning (Leica VT1000s®). Brains were cut at 50 μm thickness for cFos quantification. Brains were cut at 100 μm thickness for all other experiments.
Prior to antibody labeling, sections were incubated in blocking solution (0.4% Triton X-100 and 2% goat serum in PBS) for 30 min. Sections were then incubated in blocking solution containing primary antibodies overnight at room temperature. Primary antibodies used were chicken anti-GFP (1:1000, Ab5450, Abcam®), rabbit anti-cFos (1:500, ABE457, Millipore®), rabbit anti-DsRed (1:1000, 632496, Clontech®). Sections were washed in wash buffer (0.4% Triton X-100 in PBS) three times before secondary antibody labeling. Sections were incubated in blocking solution containing secondary antibodies and DAPI (1:5000, D1306, Thermofisher™) for three hours at room temperature. Images of stained slices were acquired using a confocal microscope (LSM710, Carl Zeiss®) with a 10× or 20× objective lens.
Adult male mice were sacrificed five hours after LPS injection. c-Fos+ cells were quantified using the Cell Counter plugin in Fiji^25. All cells were counted within a single coronal section of each respective brain region as defined by the Paxinos and Franklin Mouse Atlas^26. Regions quantified include mPFC (Including only PrL and IL) (AP+1.98), S1DZ (AP-0.48), S1BF (AP-0.48), M1 (AP-0.46), M2 (AP-0.46), AuD (AP-1.94), CeA (AP-1.94), and V1 (AP-3.64). Somatosensory cortex dysgranular zone (S1DZ), somatosensory cortex barrel field (S1BF), secondary motor cortex (M2), primary motor cortex (M1), secondary auditory cortex dorsal part (AuD), central amygdala (CeA), medial prefrontal cortex (mPFC), prelimbic cortex (PrL), infralimbic cortex (IL), primary visual cortex (V1).
Adult male mice were sacrificed five hours after LPS injection. c-Fos^+ cells were quantified using the Cell Counter plugin in Fiji^28. All cells were counted within a single coronal section of each respective brain region as defined by the Paxinos and Franklin Mouse Atlas^29. Regions quantified include mPFC (PrL and IL) (AP+1.98), S1DZ (AP-0.46), S1BF (AP-0.46), M1 (AP-0.46), M2 (AP-0.46), AuD (AP-1.94), CeA (AP-1.94), and V1 (AP-3.64). Medial prefrontal cortex (mPFC), prelimbic cortex (PrL), infralimbic cortex (IL), primary somatosensory cortex dysgranular zone (S1DZ), primary somatosensory cortex barrel field (S1BF), primary motor cortex (M1), secondary motor cortex (M2), secondary auditory cortex dorsal part (AuD), central amygdala (CeA), primary visual cortex (V1). […]

[2] = system: layer 2/3 pyramidal neurons in S1DZ; test: Whole-cell patch clamp recordings in brain slices of Veh- or LPS-injected MIA offspring; settings: S1DZ pyramidal neurons from LPS-injected MIA offspring

In the case of lipopolysaccharide [LPS], the “sociability after LPS” value [1] is reported as “failed to restore sociability in mutant mice deficient for Cntnap2, Fmr1, and Shank3”, the “BBB permeability (leakage of i.v. Evans Blue into the brain)” value (BBB; MIA offspring, LPS 3.5 hr before Evans Blue) is reported as “can increase BBB permeability” and the “LPS-induced increase in EB leakage in knockout animals” value (BBB; animals genetically deficient for IFNγ or IL-17a) is reported as “prevented in animals genetically deficient for IFNγ, but not IL-17a”. The “number of c-Fos+ S1DZ neurons” value (c-Fos; LPS-treated MIA offspring, five hours after LPS) was “indistinguishable from that of PBS offspring; also recorded: reduced to levels of control offspring”, the “number of c-Fos-expressing neurons in the central amygdala (CeA)” value (c-Fos; MIA offspring, LPS) was “increased” and the “number of c-Fos-expressing neurons in other cortical regions” value (c-Fos; MIA offspring, LPS, S1BF, M1, M2, mPFC, AuD, V1) was “remained unchanged; also recorded: does not have a distinguishable effect on c-Fos expression in other cortical regions analyzed”. For the same substance, the “number of S1DZ c-Fos+ neurons” value (c-Fos; monogenic mutant mice (Cntnap2, Fmr1, Shank3), LPS) was “failed to reduce the number of S1DZ c-Fos^+ neurons in monogenic mutant mice” and the “spiking in response to depolarizing current injections” value [2] was “reduced spiking in response to depolarizing current injections”.
